The values below come from patent US9227923B2, “Pesticidal carboxamides” (Bayer Intellectual Property GmbH, priority 2009, dated 2016).

For test [1], the system named is Tobacco Cutworm (Spodoptera litura) Larvae. Nature of the test: Test against tobacco cutworm (Spodoptera litura) larvae, leaf dip. The format is in vivo. The following applies: active compound concentration of 100 ppm, third instar larvae, after 7 days; for pest or weed control at 100 ppm: Spodoptera litura, foliar, 168 h, read-out: insecticidal activity. As to the method: (§1) Solvent: 3 parts by weight of dimethylformamide
(§2) Emulsifier: 1 part by weight of polyoxyethylene alkyl phenyl ether
Leaves of sweet potato were immersed in the test solution at the appropriate concentration, and the leaves were dried in air. The leaves were then placed in a petri dish having a diameter of 9 cm, and ten Spodoptera litura at third instar larvae were released therein. The petri dishes were placed in a temperature-controlled chamber at 25° C. After 2 days and 4 days more sweet potato leaves were added. After 7 days, the number of dead larvae was counted to calculate the insecticidal activity. An insecticidal activity of 100% means that all larvae were killed, whereas an insecticidal activity of 0% means that no larva was killed.

The test system of test [2] is Cucurbit Leaf Beetle (Aulacophora Femoralis). Nature of the test: Test against cucurbit leaf beetle (Aulacophora femoralis), leaf dip. The format is in vivo. The following applies: active compound concentration of 100 ppm; second instar larvae; after 7 days. As to the method:
as §1, §2
Leaves of cucumber were immersed in the test solution at the appropriate concentration, and the leaves were dried in air. The leaves were then put in a plastic cup containing sterilized black soil and five Aulacophora femoralis at second instar larvae were released in the cup. The cups were placed in a temperature-controlled chamber at 25° C. After 7 days, the number of dead larvae was counted, and thus the insecticidal activity was calculated. An insecticidal activity of 100% means that all larvae were killed, whereas an insecticidal activity of 0% means that no larva was killed.

`N#Cc1ccc(C(=O)Nc2c(Br)cc(C(F)(C(F)(F)F)C(F)(F)F)cc2Br)cc1` [Compound I-26]: the insecticidal activity in test [1] and in test [2] was 100% each time.

Turning to `CCc1cc(C(F)(C(F)(F)F)C(F)(F)C(F)(F)F)cc(C)c1NC(=O)c1ccc(CNC(=O)CC2CC2)c(F)c1F` (stereo not shown) [Compound 5-204], the insecticidal activity in test [1] and in test [2] was 100% each time.

Take `CCc1cc(C(F)(C(F)(F)F)C(F)(F)C(F)(F)F)cc(C)c1NC(=O)c1ccc(CNC(=O)CC(F)(F)F)c(Br)c1` (stereo not shown) [Compound 5-161]: the insecticidal activity in test [1] and in test [2] was 100% in each case.

The compound `CCC(=O)NCc1ccc(C(=O)Nc2c(C)cc(C(F)(C(F)(F)F)C(F)(F)C(F)(F)F)cc2C)cc1` (stereo not shown) [Compound 5-127] returned an insecticidal activity in test [2] of 100%.

In turn, `CCC(=O)NCc1ccc(C(=O)Nc2c(C)cc(C(F)(C(F)(F)F)C(F)(F)F)cc2CC)cc1C(F)(F)F` [Compound 5-107] displayed an insecticidal activity in test [1] of 100%.

In test [1], `CCc1cc(C(F)(C(F)(F)F)C(F)(F)F)cc(C)c1NC(=O)c1ccc(CNC(C)=O)c(C(F)(F)F)c1` [Compound 5-106] displayed an insecticidal activity of 100%.

For `CCc1cc(C(F)(C(F)(F)F)C(F)(F)F)cc(C)c1NC(=O)c1ccc(-n2cncn2)c(CNC(=O)OC)c1` [Compound 12-5], the insecticidal activity in test [1] is listed as 100%.

On to `Cc1cc(C(F)(C(F)(F)F)C(F)(F)F)cc(Cl)c1NC(=O)c1ccc(CNC(=O)CC2CC2)cc1` [Compound 5-336], for which, in test [1], the insecticidal activity stood at 100%.

For `CCC(=O)NCc1ccc(C(=O)Nc2c(C)cc(C(F)(C(F)(F)F)C(F)(F)F)cc2CC)c2ccccc12` [Compound 6-3], the insecticidal activity in test [1] amounted to 100%.

Take `O=C(CC(F)(F)F)NCc1ccc(C(=O)Nc2c(Cl)cc(C(F)(C(F)(F)F)C(F)(F)F)cc2Cl)cc1Cl` [Compound 5-232]: the insecticidal activity in test [1] amounted to 100%.

As to `CCc1cc(C(F)(C(F)(F)F)C(F)(F)Br)cc(C)c1NC(=O)c1ccc(CNC(=O)C2CC2)c(Cl)c1` (racemic) [Compound 5-318], the insecticidal activity in test [1] amounted to 100%.

`CC(C)(C)OC(=O)NCc1ccc(C(=O)Nc2c(Cl)cc(C(F)(C(F)(F)F)C(F)(F)C(F)(F)F)cc2Cl)cc1Cl` (stereo not shown) [Compound 5-329]: the insecticidal activity in test [1] amounted to 100%.

`O=C(CC(F)(F)F)NCc1ccc(C(=O)Nc2c(Cl)cc(C(F)(C(F)(F)F)C(F)(F)F)cc2Cl)cc1` [Compound 5-226] yielded an insecticidal activity in test [2] of 100%.

`Cc1cc(C(F)(C(F)(F)F)C(F)(F)F)cc(OC(F)F)c1NC(=O)c1ccc(CN)c(Cl)c1` [Compound 5-293]: the insecticidal activity in test [1] was 100%.

`CCc1cc(C(F)(C(F)(F)F)C(F)(F)F)cc(C)c1NC(=O)c1ccc(CNC(=O)CC2CC2)cc1` [Compound 5-31]: in test [1], the insecticidal activity was found to be 100%.

In test [1], `Cc1cc(C(F)(C(F)(F)F)C(F)(F)F)cc(C)c1NC(=O)c1ccc(CNC(=O)c2cccnc2Cl)cc1F` [Compound 5-182] had an insecticidal activity of 100%.

As for `O=C(CC1CC1)NCc1ccc(C(=O)Nc2c(Cl)cc(C(F)(C(F)(F)F)C(F)(F)C(F)(F)F)cc2Cl)cc1Cl` (stereo not shown) [Compound 5-330], in test [1], the insecticidal activity is 100%.

Compound `CCc1cc(C(F)(C(F)(F)F)C(F)(F)F)cc(C)c1NC(=O)c1ccc2c(c1)CCCC2NC(=O)CC(F)(F)F` (stereo not shown) [Compound 11-6] displayed an insecticidal activity in test [1] of 100%.

For `CCc1cc(C(F)(C(F)(F)F)C(F)(F)F)cc(C)c1NC(=O)c1ccc(C(C)NC(=O)CC2CC2)cc1` (stereo not shown) [Compound 9-5], in test [1], the insecticidal activity amounted to 100%.

With `CCc1cc(C(F)(C(F)(F)F)C(F)(F)C(F)(F)F)cc(C)c1NC(=O)c1ccc(CN)c(Cl)c1` (stereo not shown) [Compound 5-149], the insecticidal activity in test [1] amounted to 100%.

Turning to `CCC(=O)NCc1ccc(C(=O)Nc2c(Cl)cc(C(F)(C(F)(F)F)C(F)(F)F)cc2Cl)cc1Cl` [Compound 5-230, 3-chloro-N-[2,6-dichloro-4-(1,1,1,2,3,3,3-heptafluoropropan-2-yl)phenyl]-4-[(propionylamino)methyl]benzamide], the pest or weed control at 100 ppm in test [1] stood at 100%.

In the case of `CCC(=O)NCc1ccc(C(=O)Nc2c(C)cc(C(F)(C(F)(F)F)C(F)(F)F)cc2CC)cc1[N+](=O)[O-]` [Compound 5-115], the insecticidal activity in test [1] was 100%.

`CCc1cc(C(F)(C(F)(F)F)C(F)(F)F)cc(C)c1NC(=O)c1ccc(CN)c(Br)c1` [Compound 5-83] returned an insecticidal activity in test [1] of 100%.

`CCc1cc(C(F)(C(F)(F)F)C(F)(F)F)cc(C)c1NC(=O)c1ccc(CNC(=O)CC2CC2)c(F)c1F` [Compound 5-54] gave an insecticidal activity in test [1] of 100%.

With `CCc1cc(C(F)(C(F)(F)F)C(F)(F)F)cc(C)c1NC(=O)c1ccc(CNC(=O)C2CC2)c2ccccc12` [Compound 6-4], in test [1], the insecticidal activity was found to be 100%.

Regarding `O=C(CC1CC1)NCc1ccc(C(=O)Nc2c(Cl)cc(C(F)(C(F)(F)F)C(F)(F)C(F)(F)F)cc2Cl)cc1` (stereo not shown) [Compound 5-325], the insecticidal activity in test [1] is reported as 100%.

As for `CCc1cc(C(F)(C(F)(F)F)C(F)(F)F)cc(C)c1NC(=O)c1ccc(CNC(=O)c2ccccc2Cl)cc1` [Compound 5-37], in test [1], the insecticidal activity was 100%.

`CCc1cc(C(F)(C(F)(F)F)C(F)(F)F)cc(C)c1NC(=O)c1ccc(CNC(C)=O)c(I)c1` [Compound 5-190] had an insecticidal activity in test [1] of 100%.

Turning to `Cc1cc(C(F)(C(F)(F)F)C(F)(F)F)cc(C)c1NC(=O)c1ccc(CNC(=O)CC(F)(F)F)cc1` [Compound 5-7], the insecticidal activity in test [1] amounted to 100%.

For `CCc1cc(C(F)(C(F)(F)F)C(F)(F)F)cc(C)c1NC(=O)c1ccc(CNC(=O)CC(F)(F)F)cn1` [Compound 7-6], the insecticidal activity in test [1] turned out to be 100%.

`CCC(=O)NCc1ccc(C(=O)Nc2c(C)cc(C(F)(C(F)(F)F)C(F)(F)F)cc2CC)c(F)c1F` [Compound 5-52] yielded an insecticidal activity in test [1] of 100%.

As to `CCc1cc(C(F)(C(F)(F)F)C(F)(F)F)cc(C)c1NC(=O)c1ccc(CNC(=O)CC2CC2)c(C)c1` [Compound 5-101], the insecticidal activity in test [1] was 100%.

As for `CCc1cc(C(F)(C(F)(F)F)C(F)(F)F)cc(C)c1NC(=O)c1ccc(CNC(=O)C2CC2)c(F)c1F` [Compound 5-53], in test [1], the insecticidal activity was found to be 100%.

In turn, `Cc1cc(C(F)(C(F)(F)F)C(F)(F)F)cc(C)c1NC(=O)c1ccc(-n2cncn2)cc1Cl` [Compound 1-5] came in with an insecticidal activity in test [2] of 100%.

`Cc1cc(C(F)(C(F)(F)F)C(F)(F)F)cc(Cl)c1NC(=O)c1ccc(C#N)cc1` [Compound I-28] displayed an insecticidal activity in test [1] of 100%.

For the compound `CCc1cc(C(F)(C(F)(F)F)C(F)(F)C(F)(F)F)cc(C)c1NC(=O)c1ccc(CNC(=O)CC2CC2)c(I)c1` (stereo not shown) [Compound 5-197], in test [1], the insecticidal activity is reported as 100%.

In test [1], `CCc1cc(C(F)(C(F)(F)F)C(F)(F)F)cc(C)c1NC(=O)c1ccc(CNC(=O)CC2CC2)cc1Cl` [Compound 5-67] returned an insecticidal activity of 100%.

`CCc1cc(C(F)(C(F)(F)F)C(F)(F)F)cc(C)c1NC(=O)c1ccc(CNC(=O)C2CC2)c([N+](=O)[O-])c1` [Compound 5-116] returned an insecticidal activity in test [1] of 100%.

In test [1], `CCc1cc(C(F)(C(F)(F)F)C(F)(F)C(F)(F)F)cc(C)c1NC(=O)c1ccc(CNC(=O)C2CC2)c(I)c1` (stereo not shown) [Compound 5-196] displayed an insecticidal activity of 100%.

Regarding `CCc1cc(C(F)(C(F)(F)F)C(F)(F)F)cc(C)c1NC(=O)c1ccc(-n2cncn2)c(CNC(C)=O)c1` [Compound 12-3, 3-(acetamidemethyl)-N-[2-ethyl-4-(1,1,1,2,3,3,3-heptafluoropropan-2-yl)-6-methylphenyl]-4-(1H-1,2,4-triazol-1-yl)benzamide], the pest or weed control at 100 ppm in test [1] amounted to 100%.

In turn, `CCC(=O)NCc1ccc(C(=O)Nc2c(C)cc(C(F)(C(F)(F)F)C(F)(F)C(F)(F)F)cc2CC)cc1Br` (stereo not shown) [Compound 5-158] had an insecticidal activity in test [1] of 100%.

The compound `CCc1cc(C(F)(C(F)(F)F)C(F)(F)F)cc(C)c1NC(=O)c1ccc(CN)c(Cl)c1` [Compound 5-76] showed an insecticidal activity in test [1] of 100%.

Compound `CCc1cc(C(F)(C(F)(F)F)C(F)(F)F)cc(C)c1NC(=O)c1ccc(CNC(C)=O)cc1Cl` [Compound 5-65] returned an insecticidal activity in test [2] of 100%.

For `CCc1cc(C(F)(C(F)(F)F)C(F)(F)F)cc(C)c1NC(=O)c1ccc(C#N)cc1` [Compound I-2], the insecticidal activity in test [1] turned out to be 100%.

Compound `Cc1cc(C(F)(C(F)(F)F)C(F)(F)F)cc(Cl)c1NC(=O)c1ccc(CNC(=O)CC(F)(F)F)cc1` [Compound 5-335] displayed an insecticidal activity in test [1] of 100%.

In the case of `CCc1cc(C(F)(C(F)(F)F)C(F)(F)F)cc(C)c1NC(=O)c1ccc(CNC(=O)C(F)(F)F)c(Br)c1` [Compound 5-349], in test [1], the insecticidal activity was determined as 100%.

`Cc1cc(C(F)(C(F)(F)F)C(F)(F)F)cc(C)c1NC(=O)c1ccc(CNC(=O)c2cccnc2F)cc1` [Compound 5-19] registered an insecticidal activity in test [1] of 100%.

Compound `CCC(=O)NCc1ccc(C(=O)Nc2c(C)cc(C(F)(C(F)(F)F)C(F)(F)F)cc2CC)c(Cl)c1` [Compound 5-66] showed an insecticidal activity in test [1] of 100%.

The compound `CCC(=O)NCc1ccc(C(=O)Nc2c(C)cc(C(F)(C(F)(F)F)C(F)(F)C(F)(F)F)cc2CC)cc1I` (stereo not shown) [Compound 5-195] registered an insecticidal activity in test [1] of 100%.
